Data taken from patent US7598397B2, “Sulfonamide peri-substituted bicyclics for occlusive artery disease” (deCODE genetics ehf, priority 2004, dated 2009).
pIC50: −log10 of the molar value.

These compounds were tested against T1, prostanoid EP3 receptors (Homo sapiens, UniProt P43115) (assay: binding on prostanoid EP3 receptors (method of Abramovitz et al.)). Settings: read-out: Activity (EP3 receptor binding, IC50 class).
T1 sequence (P43115 1-390): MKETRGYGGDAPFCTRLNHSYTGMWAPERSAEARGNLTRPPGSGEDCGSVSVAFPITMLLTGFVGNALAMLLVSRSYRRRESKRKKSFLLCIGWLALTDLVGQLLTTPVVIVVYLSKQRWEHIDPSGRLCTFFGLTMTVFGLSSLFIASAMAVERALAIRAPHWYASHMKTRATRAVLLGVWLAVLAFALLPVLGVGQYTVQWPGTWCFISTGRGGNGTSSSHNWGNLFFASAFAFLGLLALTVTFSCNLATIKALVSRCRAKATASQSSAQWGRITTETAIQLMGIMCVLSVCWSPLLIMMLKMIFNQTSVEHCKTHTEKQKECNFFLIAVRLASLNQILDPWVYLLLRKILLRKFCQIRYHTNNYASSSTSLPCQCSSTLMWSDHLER
Procedure: The compounds of the invention were assayed for their binding on prostanoid EP3 receptors according to the method of Abramovitz et al. [Bioch. Biophys.

Row | Compound | pIC50
1 | O=C(COc1cccc2[nH]cc(Sc3ccc4ccccc4c3)c12)NS(=O)(=O)c1cccs1 [Compound P166] | > 6.00
2 | CC1C(=O)N(Cc2ccc3ccccc3c2)c2c(C=CC(=O)NS(=O)(=O)c3cccs3)cccc21 (stereo not drawn) [Compound P059] | > 6.00
3 | O=C(COc1cccc2[nH]cc(Sc3nc4ccccc4s3)c12)NS(=O)(=O)c1cc(Cl)c(Cl)s1 [Compound P182] | > 6.00
4 | Cc1nnc(Sc2c[nH]c3cccc(OCC(=O)NS(=O)(=O)c4cc(Cl)c(Cl)s4)c23)s1 [Compound P230] | > 6.00
5 | COc1cccc(CN2C(=O)COc3cccc(OCC(=O)NS(=O)(=O)c4cccs4)c32)c1 [Compound P030] | 5.00 to 6.00
6 | CN1C(=O)C(C)(Cc2ccc3ccccc3c2)c2c(CCC(=O)NS(=O)(=O)c3cc(Cl)c(Cl)s3)cccc21 (stereo not drawn) [Compound P156] | > 6.00
7 | O=C(COc1cccc2[nH]cc(S(=O)(=O)c3ccc(F)cc3Cl)c12)NS(=O)(=O)c1cc(Cl)c(Cl)s1 [Compound P234] | > 6.00
8 | Cc1cn(Cc2cc(F)cc(F)c2)c2c(/C=C/C(=O)NS(=O)(=O)c3cccs3)cccc12 [Compound P088] | > 6.00
9 | O=C(C=Cc1cccc2c1N(Cc1ccc3ccccc3c1)C(=O)C2(O)C(F)(F)F)NS(=O)(=O)c1cccs1 (stereo not drawn) [Compound P104] | > 6.00
10 | O=C(COc1cccc2[nH]cc(Sc3ccc(F)c(F)c3)c12)NS(=O)(=O)c1cc(Cl)c(Cl)s1 [Compound P209] | > 6.00
11 | O=C(COc1cccc2[nH]cc(Sc3ncccn3)c12)NS(=O)(=O)c1cc(Cl)c(Cl)s1 [Compound P211] | > 6.00
12 | Cn1nnnc1S(=O)(=O)c1c[nH]c2cccc(OCC(=O)NS(=O)(=O)c3cc(Cl)c(Cl)s3)c12 [Compound P239] | > 6.00
13 | Cc1ccc(C)c(Cn2cc(C)c3cccc(/C=C/C(=O)NS(=O)(=O)c4cc(Cl)c(Cl)s4)c32)c1 [Compound P138] | > 6.00

Second part, the compound after the results:

Row | pIC50 | Compound
14 | 5.00 to 6.00 | Cn1nc(NS(=O)(=O)c2cc(Cl)c(Cl)s2)c2c(Oc3ccc4ccccc4c3)cccc21 [Compound P284, 4,5-Dichloro-thiophene-2-sulfonic acid [1-methyl-4-(naphthalen-2-yloxy)-1H-indazol-3-yl]-amide]
15 | > 6.00 | CC12CCCC(C=CC(=O)NS(=O)(=O)c3cccc(Cl)c3)=C1N(Cc1ccc(Cl)cc1Cl)C(=O)C2 (stereo not drawn) [Compound P281]
16 | > 6.00 | CC12CCCC(C=CC(=O)NS(=O)(=O)c3cc(F)c(F)cc3F)=C1N(Cc1ccc(Cl)cc1Cl)C(=O)C2 (stereo not drawn) [Compound P275]
17 | > 6.00 | CC12CCCC(C=CC(=O)NS(=O)(=O)c3cc(Cl)c(Cl)s3)=C1N(Cc1cccc(F)c1)C(=O)C2 (stereo not drawn) [Compound P262]
18 | > 6.00 | Cn1cc(C=CC(=O)NS(=O)(=O)c2cc(Cl)c(Cl)s2)c2c(Oc3ccc(Cl)c(Cl)c3)cccc21 [Compound P290]
19 | > 6.00 | Cn1cc(C=CC(=O)NS(=O)(=O)c2c(F)cccc2F)c2c(Oc3ccc4ccccc4c3)cccc21 [Compound P360]
20 | > 6.00 | Cn1cc(/C=C/C(=O)NS(=O)(=O)c2cc(Cl)c(Cl)s2)c2c(Oc3ccc(Cl)cc3F)cccc21 [Compound P339]
21 | > 6.00 | Cc1cn(CCC(=O)NS(=O)(=O)c2cc(F)c(F)cc2F)c2c(Oc3ccc(Cl)cc3Cl)cc(F)cc12 [Compound P382]
22 | > 6.00 | Cn1cc(/C=C/C(=O)NS(=O)(=O)c2cc(Cl)c(Cl)s2)c2c(Oc3ccc(F)cc3F)cccc21 [Compound P326]
23 | > 6.00 | CC12CCCC(C=CC(=O)NS(=O)(=O)c3ccc(F)c(F)c3)=C1N(Cc1cccc(Cl)c1Cl)C(=O)C2 (stereo not drawn) [Compound P297]
24 | > 6.00 | Cn1cc(C=CC(=O)NS(=O)(=O)c2cc(Cl)c(Cl)s2)c2c(Oc3ccc(Cl)cc3Cl)cccc21 [Compound P303]
25 | > 6.00 | Cc1cn(Cc2ccc(F)cc2)c2c(C=CC(=O)NS(=O)(=O)c3cc(F)c(F)cc3F)cc(F)cc12 [Compound P312]
26 | > 6.00 | CC(C)(C)OC(=O)N1CCCc2cccc(OCC(=O)NS(=O)(=O)c3cccs3)c21 [Compound P273]
27 | > 6.00 | Cn1cc(C=CC(=O)NS(=O)(=O)c2ccc(F)c(F)c2)c2c(Oc3ccc(F)c(F)c3)cccc21 [Compound P319]
